# Results from US6514997B2, “Antipicornaviral compounds and compositions, their pharmaceutical uses, and materials for their synthesis” (Agouron Pharmaceuticals, Inc., priority 1999, dated 2003).
# Read-outs that look alike come from different tables or passages of the source.
# How the values were obtained:
# H1-HeLa cells = test: Cytotoxicity (CC50) in mock-infected H1-HeLa cells, XTT dye reduction; type: cell-based, human
# Summary of the method: (§1)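 H1-HeLa cells mock-infected, read by XTT/PMS formazan at 450/650 nm.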
# [1] = as above; type: cell-based, human; details: human, H1-HeLa cells, mock-infected
# Summary of the method: as §1
# [2] = tested on: strains of human rhinovirus (HRV); test: Antirhinoviral H1-HeLa cell culture assay (XTT cell protection, EC50), other HRV strains; type: cell-based, human rhinovirus in H1-HeLa cells; details: read-out: EC50
# Summary of the method: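 H1-HeLa cells infected, or mock-infected, were incubated with compounds for two days. Cell protection measured by XTT/PMS formazan absorbance at 450/650 nm; TI taken as CC50 divided by EC50.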
# [3] = target: T1, Recombinant rhinovirus 3C protease, serotype 14 (Human rhinovirus 14, UniProt P03303); test: Inhibition of rhinovirus 3C protease (FRET assay, kobs/[I]), serotype 14; type: biochemical; details: pH 7.6, read-out: kobs/[I] (3C protease inhibition activity)
# T1 construct: Recombinant rhinovirus 3C proteases; made in house
# Summary of the method: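 Enzyme-start FRET assay with ~1 μM DABCYL/EDANS peptide substrate and 50-100 nM recombinant protease in 50 mM tris pH 7.6, 1 mM EDTA, 2% DMSO. Cleavage followed as fluorescence increase; kobs/[I] derived from progress curves.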
# HRV-14 = test: Antirhinoviral H1-HeLa cell culture assay (XTT cell protection, EC50), HRV-14; type: cell-based, human rhinovirus (HRV) serotype-14 in H1-HeLa cells; details: Rhinovirus B, HRV14, H1-HeLa
# Summary of the method: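 H1-HeLa cells were infected with HRV-14 at m.o.i. 0.13, or mock-infected, and incubated with compound for two days. Cell protection was read by XTT/PMS formazan absorbance at 450/650 nm to give EC50. CC50 came from mock-infected cells, and TI = CC50/EC50.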
# [4] = Human rhinovirus sp., HRV9, H1-HeLa, HRV-9
# [5] = Human rhinovirus sp., HRV10, H1-HeLa, HRV-10
# [6] = Human rhinovirus sp., HRV16, H1-HeLa, HRV-16
# [7] = Human rhinovirus sp., HRV25, H1-HeLa, HRV-25
# [8] = Human rhinovirus sp., HRV39, H1-HeLa, HRV-39
# [9] = Human rhinovirus sp., HRV3, H1-HeLa, HRV-3
# T1 sequence (P03303 1538-1719): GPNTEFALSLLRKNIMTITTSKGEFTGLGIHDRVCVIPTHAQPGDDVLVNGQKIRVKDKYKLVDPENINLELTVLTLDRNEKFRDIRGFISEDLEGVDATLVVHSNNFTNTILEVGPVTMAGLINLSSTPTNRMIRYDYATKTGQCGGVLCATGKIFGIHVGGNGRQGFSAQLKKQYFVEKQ
Compound,CC50 (H1-HeLa cells; line of HRV-1A) [µM],CC50 (H1-HeLa cells; line of HRV-2) [µM],CC50 (H1-HeLa cells; line of HRV-9) [µM],CC50 (H1-HeLa cells; line of HRV-10) [µM],CC50 (H1-HeLa cells; line of HRV-16) [µM],CC50 (H1-HeLa cells; line of HRV-25) [µM],CC50 (H1-HeLa cells; line of HRV-39) [µM],CC50 at 2 days ([1]; line of HRV-14) [µM],"EC50 ([2]; H1-HeLa, HRV-1A) [µM]","EC50 ([2]; H1-HeLa, HRV-2) [µM]","EC50 [2, 4] [µM]","EC50 [2, 5] [µM]","EC50 [2, 6] [µM]","EC50 [2, 7] [µM]","EC50 [2, 8] [µM]",kinact/KI ([3]; HRV-14) [M⁻¹ s⁻¹],EC50 (HRV-14) [µM],CC50 (H1-HeLa cells; line of HRV-3) [µM],"EC50 [2, 9] [µM]",other results
"Cc1cc(C(=O)Nc2cccn([C@@H](Cc3ccc(F)c(F)c3)C(=O)N[C@H](/C=C/C(=O)OC3CCCCC3)C[C@@H]3CCNC3=O)c2=O)no1 [Compound 54, trans-(2′S,3″″″S,4S)-4-[3′-(3″,4″-Difluorophenyl)-2′-(3′″-{[1″″-(5′″″-methylisoxazol-3′″″-yl)methanoyl]amino}-2″″-oxo-2″″H-pyridin-1″″-yl)propanoylamino]-5-(2″″″-oxopyrrolidin-3″″″-yl)pent-2-enoic Acid Cyclohexyl Ester]",> 10,> 10,> 10,> 10,> 10,> 10,> 10,> 10,0.49,0.148,0.517,0.131,0.142,0.215,0.346,244000,0.045,,,
Cc1cc(C(=O)Nc2cccn([C@@H](Cc3ccc(F)c(F)c3)C(=O)N[C@H](/C=C/C(=O)OC(C)(C)C)C[C@@H]3CCNC3=O)c2=O)no1 [Compound 46],> 10,> 10,> 10,> 10,> 10,> 10,> 10,> 10,0.182,0.145,0.151,0.135,0.16,0.188,0.227,350000,0.006,> 10,0.045,"CC50 (H1-HeLa cells; line of HRV-11): > 10 µM; CC50 (H1-HeLa cells; line of HRV-13): > 10 µM; CC50 (H1-HeLa cells; line of HRV-19): > 10 µM; CC50 (H1-HeLa cells; line of HRV-23): > 10 µM; CC50 (H1-HeLa cells; line of HRV-78): > 10 µM; CC50 (H1-HeLa cells; line of HRV-Hanks): > 10 µM; EC50 ([2]; H1-HeLa, HRV-23): 0.011 µM; EC50 ([2]; Human rhinovirus sp., H1-HeLa, HRV-Hanks): 0.005 µM; EC50 ([2]; Human rhinovirus sp., HRV11, H1-HeLa, HRV-11): 0.003 µM; EC50 ([2]; Human rhinovirus sp., HRV13, H1-HeLa, HRV-13): 0.078 µM; EC50 ([2]; Human rhinovirus sp., HRV19, H1-HeLa, HRV-19): 0.02 µM; EC50 ([2]; Human rhinovirus sp., HRV78, H1-HeLa, HRV-78): 0.025 µM"
"CCOC(=O)/C=C/[C@H](C[C@@H]1CCNC1=O)NC(=O)[C@H](Cc1ccc(F)cc1)n1cccc(NC(=O)c2cc(C)on2)c1=O [Compound 25, trans-(2′S,3′″″S,4S)-4-(3′-(4″-Fluorophenyl)-2′-{3′″-[(5″″-methylisoxazole-3″″-carbonyl)amino]-2′-oxo-2′″H-pyridin-1′″-yl}propionylamino)-5-(2′″″-oxopyrrolidin-3′″″-yl)pent-2-enoic Acid Ethyl Ester]",> 10,> 10,> 10,> 10,> 10,> 10,> 10,> 10,0.015,0.004,0.01,0.004,0.005,0.022,0.009,1.25e+06,0.002,> 10,0.004,"CC50 (H1-HeLa cells; line of HRV-87): > 10 µM; EC50 ([2]; Human rhinovirus sp., HRV87, H1-HeLa, HRV-87): 0.008 µM"
"CC[C@@H](C(=O)N[C@H](/C=C/C(=O)OC(C)C)C[C@@H]1CCNC1=O)n1cccc(NC(=O)c2cc(C)on2)c1=O [Compound 52, trans-(2′S,3′″″S,4S)-4-[2′-(3″-{[1′″-(5″″-Methylisoxazol-3″″-yl)methanoyl]amino}-2′″oxo-2′″H-pyridin-1′″-yl)butanoylamino]-5-(2′″″-oxopyrrolidin-3′″″-yl)pent-2-enoic Acid Isopropyl Ester]",,,> 10,> 10,> 10,> 10,> 10,> 10,,,0.473,0.176,0.28,0.109,0.337,36000,0.181,,,
"Cc1cc(C(=O)Nc2cccn([C@@H](Cc3ccc(F)c(F)c3)C(=O)N[C@H](/C=C/C(=O)OC3CCCC3)C[C@@H]3CCNC3=O)c2=O)no1 [Compound 49, trans-(2′S,3″″″S,4S)-4-[3′-(3″,4″-Difluorophenyl)-2′-(3′″-{[1″″-(5′″″-methylisoxazol-3′″″-yl)methanoyl]amino}-2″″-oxo-2″″H-pyridin-1″″-yl)propanoylamino]-5-(2″″″-oxopyrrolidin-3″″″-yl)pent-2-enoic Acid Cyclopentyl Ester]",> 10,> 10,> 10,> 10,> 10,> 10,> 10,> 10,0.131,0.083,0.095,0.076,0.032,0.371,0.145,1.2e+06,0.004,> 10,0.041,
"Cc1cc(C(=O)Nc2cccn([C@@H](Cc3ccc(F)c(F)c3)C(=O)N[C@H](/C=C/C(=O)OC3CCCCCC3)C[C@@H]3CCNC3=O)c2=O)no1 [Compound 56, trans-(2′S,3″″″S,4S)-4-[3′-(3″,4″-Difluorophenyl)-2′-(3′″-{[1″″-(5′″″-methylisoxazol-3′″″-yl)methanoyl]aminol}-2″″-oxo-2″″H-pyridin-1″″-yl)propanoylamino]-5-(2″″″-oxopyrrolidin-3″″″-yl)pent-2-enoic Acid Cycloheptyl Ester]",,,,,,,,,0.504,,0.546,0.158,,0.4,,,0.163,,,CC50 (H1-HeLa cells; HRV-1A): > 10 µM; CC50 (H1-HeLa cells; HRV-9): > 10 µM; CC50 (H1-HeLa cells; HRV-10): > 10 µM; CC50 (H1-HeLa cells; HRV-25): > 10 µM; CC50 at 2 days ([1]; HRV-14): > 10 µM; kinact/KI ([3]; HRV-14 3C protease): 99000 M⁻¹ s⁻¹
"C#CC[C@@H](C(=O)N[C@H](/C=C/C(=O)OC(C)C)C[C@@H]1CCNC1=O)n1cccc(NC(=O)c2cc(C)on2)c1=O [Compound 50, trans-(2′S,3′″″S,4S)-4-[2′-(3″- {[1′″-(5″″-Methylisoxazol-3″″-yl)methanoyl]amino}-2′″-oxo-2′″H-pyridin-1′″-yl)pent-4″-ynoylamino]-5-(2′″″-oxopyrrolidin-3′″″-yl)pent-2-enoic Acid Isopropyl Ester]",> 10,> 10,> 10,> 10,> 10,> 10,> 10,> 10,0.2,0.105,0.122,0.75,0.185,0.371,> 1,100000,0.068,> 10,0.117,
